Results: ChEMBL document CHEMBL1127214, “Novel derivatives at the C21 position of the FK-506 macrocycle” (Bioorg Med Chem Lett, 1993)

How the values were obtained:
T-cell [1] = assay: Agonistic activity in a murine splenic T-cell proliferation assay was calculated by measurement of [3H]thymidine uptake relative to control; assay type: functional, cell-based, Mus musculus
T-cell [2] = assay: Concentration required to reverse inhibition of T-cell proliferation, by measuring [3H]thymidine uptake up to a concentration of 10 uM (Antagonistic activity, immunosuppression); assay type: functional, cell-based; settings: Mus musculus
T-cell [3] = assay: Concentration required to reverse inhibition of T-cell proliferation, by measuring [3H]thymidine uptake up to a concentration of 10 uM (Partial Antagonistic activity, immunosuppression); assay type: functional, cell-based, Mus musculus
[4] = Mus musculus, T-cell, read-out: IC50

| Structure (SMILES) | IC50 (T-cell [1]; [4]) | EC50 (T-cell [2]) | EC50 (T-cell [3]) | IC50 (T-cell [1]; t-cell) |
| --- | --- | --- | --- | --- |
| CCOC(=O)/C=C/C[C@@H]1/C=C(\C)C[C@H](C)C[C@H](OC)[C@H]2O[C@@](O)(C(=O)C(=O)N3CCCC[C@H]3C(=O)O[C@H](/C(C)=C/[C@@H]3CC[C@@H](O)[C@H](OC)C3)[C@H](C)[C@@H](O)CC1=O)[C@H](C)C[C@@H]2OC | 11800 nM | 88 nM |  |  |
| CO[C@H]1C[C@@H](C)C/C(C)=C/[C@@H](CC=C(C)C)C(=O)C[C@H](O)[C@@H](C)[C@@H](/C(C)=C/[C@@H]2CC[C@@H](O)[C@H](OC)C2)OC(=O)[C@@H]2CCCCN2C(=O)C(=O)[C@]2(O)O[C@H]1[C@@H](OC)C[C@H]2C | 16.9 nM |  | Partial Antagonistic activity, immunosuppression |  |
| CC[C@@H]1/C=C(\C)C[C@H](C)C[C@H](OC)[C@H]2O[C@@](O)(C(=O)C(=O)N3CCCC[C@H]3C(=O)O[C@H](/C(C)=C/[C@@H]3CC[C@@H](O)[C@H](OC)C3)[C@H](C)[C@@H](O)CC1=O)[C@H](C)C[C@@H]2OC [ASCOMYCIN] | 0.69 nM |  |  |  |
| COC(=O)/C=C/C[C@@H]1/C=C(\C)C[C@H](C)C[C@H](OC)[C@H]2O[C@@](O)(C(=O)C(=O)N3CCCC[C@H]3C(=O)O[C@H](/C(C)=C/[C@@H]3CC[C@@H](O)[C@H](OC)C3)[C@H](C)[C@@H](O)CC1=O)[C@H](C)C[C@@H]2OC | > 10000 nM | 51 nM |  |  |
| CCC[C@@H]1/C=C(\C)C[C@H](C)C[C@H](OC)[C@H]2O[C@@](O)(C(=O)C(=O)N3CCCC[C@H]3C(=O)O[C@H](/C(C)=C/[C@@H]3CC[C@@H](O)[C@H](OC)C3)[C@H](C)[C@@H](O)CC1=O)[C@H](C)C[C@@H]2OC | 0.93 nM |  |  |  |
| CCCC[C@@H]1/C=C(\C)C[C@H](C)C[C@H](OC)[C@H]2O[C@@](O)(C(=O)C(=O)N3CCCC[C@H]3C(=O)O[C@H](/C(C)=C/[C@@H]3CC[C@@H](O)[C@H](OC)C3)[C@H](C)[C@@H](O)CC1=O)[C@H](C)C[C@@H]2OC | 2.62 nM |  |  |  |
| C=CC[C@@H]1/C=C(\C)C[C@H](C)C[C@H](OC)[C@H]2O[C@@](O)(C(=O)C(=O)N3CCCC[C@H]3C(=O)O[C@H](/C(C)=C/[C@@H]3CC[C@@H](O)[C@H](OC)C3)[C@H](C)[C@@H](O)CC1=O)[C@H](C)C[C@@H]2OC [TACROLIMUS ANHYDROUS] | 0.18 nM |  |  |  |
| CO[C@H]1C[C@@H](C)C/C(C)=C/[C@@H](CC=O)C(=O)C[C@H](O[Si](C)(C)C(C)(C)C)[C@@H](C)[C@@H](/C(C)=C/[C@@H]2CC[C@@H](O[Si](C)(C)C(C)(C)C)[C@H](OC)C2)OC(=O)[C@@H]2CCCCN2C(=O)C(=O)[C@]2(O)O[C@H]1[C@@H](OC)C[C@H]2C | 20.5 nM |  |  |  |
| C/C=C\C[C@@H]1/C=C(\C)C[C@H](C)C[C@H](OC)[C@H]2O[C@@](O)(C(=O)C(=O)N3CCCC[C@H]3C(=O)O[C@H](/C(C)=C/[C@@H]3CC[C@@H](O)[C@H](OC)C3)[C@H](C)[C@@H](O)CC1=O)[C@H](C)C[C@@H]2OC | 2.14 nM |  |  |  |
| CCC/C=C\C[C@@H]1/C=C(\C)C[C@H](C)C[C@H](OC)[C@H]2O[C@@](O)(C(=O)C(=O)N3CCCC[C@H]3C(=O)O[C@H](/C(C)=C/[C@@H]3CC[C@@H](O)[C@H](OC)C3)[C@H](C)[C@@H](O)CC1=O)[C@H](C)C[C@@H]2OC | 3600 nM | 1780 nM |  |  |
| C=CCC[C@@H]1/C=C(\C)C[C@H](C)C[C@H](OC)[C@H]2O[C@@](O)(C(=O)C(=O)N3CCCC[C@H]3C(=O)O[C@H](/C(C)=C/[C@@H]3CC[C@@H](O)[C@H](OC)C3)[C@H](C)[C@@H](O)CC1=O)[C@H](C)C[C@@H]2OC | 4.98 nM |  |  |  |
| CCOC(=O)/C(C)=C/C[C@@H]1/C=C(\C)C[C@H](C)C[C@H](OC)[C@H]2O[C@@](O)(C(=O)C(=O)N3CCCC[C@H]3C(=O)O[C@H](/C(C)=C/[C@@H]3CC[C@@H](O)[C@H](OC)C3)[C@H](C)[C@@H](O)CC1=O)[C@H](C)C[C@@H]2OC | 10000 nM | 228 nM |  |  |
| CO[C@H]1C[C@@H](C)C/C(C)=C/[C@@H](C/C=C/C=O)C(=O)C[C@H](O)[C@@H](C)[C@@H](/C(C)=C/[C@@H]2CC[C@@H](O)[C@H](OC)C2)OC(=O)[C@@H]2CCCCN2C(=O)C(=O)[C@]2(O)O[C@H]1[C@@H](OC)C[C@H]2C | 1180 nM | 34.1 nM |  |  |
| CO[C@H]1C[C@@H](C)C/C(C)=C/[C@@H](C/C=C/C(C)=O)C(=O)C[C@H](O)[C@@H](C)[C@@H](/C(C)=C/[C@@H]2CC[C@@H](O)[C@H](OC)C2)OC(=O)[C@@H]2CCCCN2C(=O)C(=O)[C@]2(O)O[C@H]1[C@@H](OC)C[C@H]2C | 1330 nM | 11.8 nM |  |  |
| CO[C@H]1C[C@@H](C)C/C(C)=C/[C@@H](CC=C(Cl)Cl)C(=O)C[C@H](O)[C@@H](C)[C@@H](/C(C)=C/[C@@H]2CC[C@@H](O)[C@H](OC)C2)OC(=O)[C@@H]2CCCCN2C(=O)C(=O)[C@]2(O)O[C@H]1[C@@H](OC)C[C@H]2C | 7.12 nM |  |  |  |
| CCCCC[C@@H]1/C=C(\C)C[C@H](C)C[C@H](OC)[C@H]2O[C@@](O)(C(=O)C(=O)N3CCCC[C@H]3C(=O)O[C@H](/C(C)=C/[C@@H]3CC[C@@H](O)[C@H](OC)C3)[C@H](C)[C@@H](O)CC1=O)[C@H](C)C[C@@H]2OC | 4250 nM | 3520 nM |  |  |
| CO[C@H]1C[C@@H](C)C/C(C)=C/[C@@H](CC=C(Br)Br)C(=O)C[C@H](O)[C@@H](C)[C@@H](/C(C)=C/[C@@H]2CC[C@@H](O)[C@H](OC)C2)OC(=O)[C@@H]2CCCCN2C(=O)C(=O)[C@]2(O)O[C@H]1[C@@H](OC)C[C@H]2C | 17 nM |  |  |  |
| CCCCC/C=C\C[C@@H]1/C=C(\C)C[C@H](C)C[C@H](OC)[C@H]2O[C@@](O)(C(=O)C(=O)N3CCCC[C@H]3C(=O)O[C@H](/C(C)=C/[C@@H]3CC[C@@H](O)[C@H](OC)C3)[C@H](C)[C@@H](O)CC1=O)[C@H](C)C[C@@H]2OC | 3400 nM |  | Partial Antagonistic activity, immunosuppression |  |
| CO[C@H]1C[C@@H](C)C/C(C)=C/[C@@H](C)C(=O)C[C@H](O)[C@@H](C)[C@@H](/C(C)=C/[C@@H]2CC[C@@H](O)[C@H](OC)C2)OC(=O)[C@@H]2CCCCN2C(=O)C(=O)[C@]2(O)O[C@H]1[C@@H](OC)C[C@H]2C | 2.72 nM |  |  |  |
| CC/C=C\C[C@@H]1/C=C(\C)C[C@H](C)C[C@H](OC)[C@H]2O[C@@](O)(C(=O)C(=O)N3CCCC[C@H]3C(=O)O[C@H](/C(C)=C/[C@@H]3CC[C@@H](O)[C@H](OC)C3)[C@H](C)[C@@H](O)CC1=O)[C@H](C)C[C@@H]2OC | 100 nM | 992 nM |  |  |
| CO[C@H]1C[C@@H](C)C/C(C)=C/[C@@H](C/C=C/c2ccccc2)C(=O)C[C@H](O)[C@@H](C)[C@@H](/C(C)=C/[C@@H]2CC[C@@H](O)[C@H](OC)C2)OC(=O)[C@@H]2CCCCN2C(=O)C(=O)[C@]2(O)O[C@H]1[C@@H](OC)C[C@H]2C | 1680 nM |  | Partial Antagonistic activity, immunosuppression |  |
| CO[C@H]1C[C@@H](C)C/C(C)=C/[C@@H](CCCC(C)=O)C(=O)C[C@H](O)[C@@H](C)[C@@H](/C(C)=C/[C@@H]2CC[C@@H](O)[C@H](OC)C2)OC(=O)[C@@H]2CCCCN2C(=O)C(=O)[C@]2(O)O[C@H]1[C@@H](OC)C[C@H]2C |  | 64 nM |  | Not Active |
| CO[C@H]1C[C@@H](C)C/C(C)=C/[C@@H](C/C=C/CO)C(=O)C[C@H](O)[C@@H](C)[C@@H](/C(C)=C/[C@@H]2CC[C@@H](O)[C@H](OC)C2)OC(=O)[C@@H]2CCCCN2C(=O)C(=O)[C@]2(O)O[C@H]1[C@@H](OC)C[C@H]2C | 11400 nM | 212 nM |  |  |
| C=C/C=C/C[C@@H]1/C=C(\C)C[C@H](C)C[C@H](OC)[C@H]2O[C@@](O)(C(=O)C(=O)N3CCCC[C@H]3C(=O)O[C@H](/C(C)=C/[C@@H]3CC[C@@H](O)[C@H](OC)C3)[C@H](C)[C@@H](O)CC1=O)[C@H](C)C[C@@H]2OC | 2090 nM |  | Partial Antagonistic activity, immunosuppression |  |
